According to article PMC6832649, “Sa12b Peptide from Solitary Wasp Inhibits ASIC Currents in Rat Dorsal Root Ganglion Neurons” (Toxins, 2019):
“Also recorded” adds a separate entry of the source. Where no end group is shown, it is not given here.

Columns and labels:
rASIC3 = system: rASIC3; design: method as in PMID 15044953; conditions: ref [34]; read-out: IC50, homomeric rASIC3; cited from earlier work
hASIC3 = system: hASIC3; design: method as in PMID 15044953; conditions: ref [34]; cited from earlier work
[1] = pH not stated for this peptide; ref [37]; cited from earlier work
Source text: RFa-related peptides have an NH2 group which is positively charged at pH 5 to 8 [21]. The effects of Sh5b could be due to the positive charge given by its amine group. Other inhibitors of ASICs, such as the PhcrTx1 peptide, which at pH 7.4 has a net charge of +5.03, APETx2 (net charge = +2.00), and PcTx1 (net charge = +3) also have that particularity. Aminoglycosides are also positively-charged ASICs modulators.

[2] = system: ASIC currents in rat dorsal root ganglion (DRG) neurons; experiment: ASIC currents in DRG neurons, whole-cell voltage clamp; type: cell-based, Long-Evans CII rat (P7-P10)
Procedure: To study the effect of Sa12b and Sh5b on ASIC, DRG neurons were obtained from Long-Evans CII / ZV rats of 7 to 10 days of postnatal age, of either sex. Animals were provided by the laboratory animal facility ‘Claude Bernard’ of the Autonomous University of Puebla. The study was performed in accordance with the recommendations in the Guiding Principles in the Care and Use of Vertebrate Animals in Research and Training of the American Physiological Society, and with the regulations of the NOM-062-ZOO-1999 of the Mexican Ministry of Agriculture, Stockbreeding, Rural Development, Fishing and Food. The protocol was reviewed and approved by the Institutional Committee for Animal Care and Use (IACUC) of the Autonomous University of Puebla (VIEP-BUAP) on 17 July 2017. The ethical approval code is SOEE-UALVIEP-17-1. All efforts were made to minimize animal suffering and to reduce the number of animals used. DRG neurons were isolated and maintained in primary culture according to the methodology described previously. The dissection and cell culture were performed within a level I biosafety laminar flow hood (Nuaire, Plymouth, MN, USA). Rats were anesthetized with sevoflurane and sacrificed by decapitation. Subsequently, the rat was placed in prone position to make a longitudinal incision through the vertebral bodies removing the spinal cord. Dorsal root ganglia were isolated (approximately 12 to 18 per rat) using conventional dissection under a stereoscopic microscope (American Optical, Southbridge, MA, USA). Once extracted, DRG neurons were placed in a disposable sterile centrifuge tube (Corning, Corning, NY, USA), in which they were incubated for 30 min at 37 °C in Leibovitz L15 medium (L15) (Invitrogen, Waltham, MA, USA), added with 1.25 mg/mL of trypsin and 1.25 mg/mL of collagenase (both from Sigma-Aldrich, St. Louis, MO, USA) for an enzymatic dissociation.
After the enzymatic treatment, the ganglia were washed 3 times with 100% L15 medium; after each wash, the cells were subjected to mechanical dissociation using glass three-gauge Pasteur pipettes; between each wash, a cell pellet was formed using a centrifuge at 5000 rpm. After the third wash, once the cell pellet was formed, the supernatant was discarded, and the cell suspension was placed in a 35 mm culture dish (Corning) on 12 × 10 mm glass plates (Corning) previously treated with poly-D-lysine (Sigma-Aldrich, St. Louis, MO, USA).
Dissociated neurons were incubated for a period of time ranging from 2 to 8 h in a humidified atmosphere ([…], 5% CO2, at 37 °C) using a water-jacketed CO2 incubator (Nuaire, Plymouth, MN, USA) allowing for settlement and adhesion of isolated cells to the glass plates. The cells were cultured in modified L15 medium, supplemented with 10% fetal bovine serum (Gibco, Waltham, MA, USA), 100 IU penicillin (Lakeside, Hayward, CA USA), fungizone 2.5 μL/mL (Gibco), NaHCO3 15.7 mM (J.T. Baker, Radnor DE, USA) and 15.8 mM HEPES (Sigma-Aldrich, St. Louis, MO, USA).
After an incubation period of 2 to 8 h, the recording of ASIC currents in DRG neurons was performed. Cells were transferred to a recording chamber mounted in a phase-contrast inverted microscope (TMS, Nikon Co. Tokyo, Japan).
The recording chamber was constantly perfused with extracellular solution (Table 3). Recordings were performed in whole-cell voltage-clamp mode using an Axopatch 1D amplifier (Molecular Devices, Union City, CA, USA). Data collection and generation of commands for the perfusion change were carried out by the pClamp 9.2 (Molecular Devices) software in a 16-bit data acquisition system (Digidata 1320, Molecular Devices). […] The signals were digitized at 5 kHz. The series resistance was electronically compensated at 80%. Throughout the recording, access resistance and seal quality were monitored to ensure stable recording conditions.
Proton-gated currents were obtained with a holding potential of −60 mV. […]

ASIC1a = conditions: ref [38]; cited from earlier work
ASIC1b = conditions: ref [9]; read-out: EC50, agonist of ASIC1b; cited from earlier work
ASIC currents = conditions: 10 μM stated to be close to the EC50 of FMRFa; no reference given; cited from earlier work
Procedure: The peptide was initially tested at 10 μM, this concentration was used because it is close to the EC50 of FMRFa. With application of 10 µM Sa12b in preincubation form (20 s before and 5 s during acid pulse), Sa12b inhibited ASIC currents 92.7 ± 7.3% (p < 0.05 paired Student’s t-test, n = 5) (Figure 2A).

[3] = biological target: Acid-Sensing Ion Channels (ASIC) of rat dorsal root ganglion neurons
[4] = biological target: Acid-Sensing Ion Channels (ASIC) of rat dorsal root ganglion neurons; remark: listed apart in the source
[5] = Sh5b 100 nM, co-application, mean ± E.S., n = 5
[6] = Sh5b 100 nM, preincubation, mean ± E.S., n = 9
[7] = Sh5b 100 nM, preincubation, single recording, Figure 6A
[8] = Sh5b 1 µM, preincubation, single recording, Figure 6B
[9] = Sh5b 3 µM, co-application, single recording, Figure 5A
[10] = Sh5b 10 µM, co-application, mean ± E.S., n = 9
[11] = Sh5b 10 µM, co-application, single recording, Figure 5B
[12] = Sh5b 10 µM, preincubation, mean ± E.S., n = 12
[13] = Sh5b 10 µM, preincubation, single recording, Figure 6C
[14] = Sh5b 30 µM, co-application, mean ± E.S., n = 6
[15] = Sh5b 30 µM, co-application, single recording, Figure 5C

## APETx2
rASIC3
  IC50: 37 to 63 nM
hASIC3
  IC50: ~175 nM
[1]
  net charge: +2.00

## DVDHVFLRF-NH2 [Sh5b]
[2]; Sh5b 100 nM, co-application, n = 5
  effect on analyzed parameters of ASIC current: no consistent concentration-dependent effects
[2]; [5]
  % ISS change (increase 🡹): 🡹 85 ± 74%
  % Ipeak change (decrease 🡻): 🡻2 ± 4%
  % Ƭdes change (decrease 🡻): 🡻 1 ± 2%
[2]; Sh5b 100 nM, preincubation, n = 9
  effect on analyzed parameters: no effect
[2]; [6]
  % ISS change (increase 🡹): 🡹 53 ± 38%
  % Ipeak change (decrease 🡻): 🡻0.5 ± 6%
  % Ƭdes change (increase 🡹): 🡹 13 ± 15%
[2]; [7]
  change in Ƭdes: no change
  increase of ISS: 3%
  increase of Ipeak: 1%
[2]; Sh5b 1 µM, preincubation, mean ± E.S., n = 5
  % Ƭdes change (increase 🡹): 🡹 3 ± 5%
[2]; [8]
  inhibition of ISS: 5%
  inhibition of Ipeak: 1%
[2]; Sh5b 3 µM, co-application, mean ± E.S., n = 12
  % Ipeak change (decrease 🡻): 🡻6 ± 3%
[2]; [9]
  increase of ISS: 30%
  reduction of Ipeak: 9.6%
[2]; Sh5b 10 µM, co-application, increase in some cells, decrease in others
  overall change of Ipeak: non-significant
[2]; [10]
  % ISS change (increase 🡹): 🡹 1 ± 11%
  % Ƭdes change (decrease 🡻): 🡻 10 ± 5%
[2]; Sh5b 10 µM, co-application, mean ± E.S., n = 9, non-significant
  % Ipeak change (increase 🡹): 🡹17 ± 15%
[2]; [11]
  increase of ISS: 14.6%
  increase of Ipeak: 44.6%
[2]; Sh5b 10 µM, preincubation, n = 12
  effect on studied parameters: did not produced significant effects
[2]; [12]
  % ISS change (decrease 🡻): 🡻 8 ± 15%
  % Ipeak change (decrease 🡻): 🡻11 ± 4%
  % Ƭdes change (decrease 🡻): 🡻 5 ± 4%
[2]; [13]
  change in Ƭdes: no change
  increase of ISS: 26%
  inhibition of Ipeak: 18%
[2]; Sh5b 30 µM, co-application, from 79 pA before peptide, single recording, Figure 5C
  ISS amplitude: 159 pA
[2]; [14]
  % Ipeak change (decrease 🡻): 🡻1 ± 6%
  % Ƭdes change (increase 🡹): 🡹 9 ± 5%
[2]; [15]
  increase of ISS: 102%
  inhibition of Ipeak: 3.8%
[2]; Sh5b, both application protocols
  overall effect on ASIC currents: did not show consistent results having both excitatory and inhibitory effects on the maximum ASIC currents; also recorded: did not produce consistent, reproducible, effects
[2]; Sh5b, co-application, 100 nM-30 µM
  concentration dependence of effects on ASIC current: not dependent on concentration
[2]; Sh5b, co-application, overall
  effect on ISS/Ipeak relationship: tendency towards the increase
  effect on Ƭdes: did not show noticeable differences
[2]; Sh5b, overall, preincubation
  effect on ISS component: increased slightly
[2]; Sh5b, preincubation, overall
  effect on ISS/Ipeak relationship: also increased
  effect on current peak: tendency to inhibit the current peak
  effect on Ƭdes and integral of the current: no consistent changes
[2]; after 1 min washout
  reversibility of effect on ASIC current: reversed by 1 min peptide washout

## PcTx1
ASIC1a
  IC50: 1 nM
ASIC1b
  EC50: ~100 nM
[1]
  net charge: +3

## Phe-Met-Arg-Phe amide [FMRFa, abundant tetrapeptide in invertebrate nervous systems, neurotransmitter and neuromodulator]
ASIC currents
  EC50: ~10000 nM

## Sa12b peptide
[3]
  percent decrease of the ASIC I peak at pH 6.1, Sa12b by preincubation, 30 nM to 10 µM (highest at 1 µM), whole-cell voltage clamp of rat DRG neurons: 98 % I_(peak)

## DVDHVFLRF-NH2 [Sh5b peptide]
[4]
  percent decrease of the ASIC I peak at pH 6.1, Sh5b by preincubation, 100 nM to 10 µM (largest at 10 µM; not significant), whole-cell voltage clamp of rat DRG neurons: 11 % I_(peak)
